Source: patent US12180207B2 (ARRAY BIOPHARMA INC., priority 2018, dated 2024)

Columns and labels:
Format in all cases: biochemical
[1] = biological target: recombinant human FGFR1 catalytic domain (amino acids 308-731) (Homo sapiens (Human), UniProt P11362); assay: FGFR1 enzyme activity assay (LanthaScreen TR-FRET); conditions: 20 min incubation at 22° C., average of multiple determinations if made, read-out: FGFR1 Enz FRET IC50
Outline: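 His-tagged FGFR1 kinase domain with 100 nM Alexa Fluor 647-poly-GT peptide and ATP in pH 7.5 HEPES/MgCl2 buffer with 2% DMSO, 20 min at 22 °C. Quenched with EDTA plus 2 nM Eu-PY20 antibody and read after 60 min. IC50 comes from a 4-parameter fit of percent of control.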

[2] = biological target: recombinant human FGFR3 (amino acids R397-T806) (Homo sapiens (Human), UniProt P22607); assay: FGFR3 enzyme activity assay (LanthaScreen TR-FRET); conditions: 25 μM ATP, 10 min incubation at 22° C., average of multiple determinations if made, read-out: FGFR3 Enz FRET IC50
Chain of recombinant human FGFR3 (amino acids R397-T806) (P22607 397-806): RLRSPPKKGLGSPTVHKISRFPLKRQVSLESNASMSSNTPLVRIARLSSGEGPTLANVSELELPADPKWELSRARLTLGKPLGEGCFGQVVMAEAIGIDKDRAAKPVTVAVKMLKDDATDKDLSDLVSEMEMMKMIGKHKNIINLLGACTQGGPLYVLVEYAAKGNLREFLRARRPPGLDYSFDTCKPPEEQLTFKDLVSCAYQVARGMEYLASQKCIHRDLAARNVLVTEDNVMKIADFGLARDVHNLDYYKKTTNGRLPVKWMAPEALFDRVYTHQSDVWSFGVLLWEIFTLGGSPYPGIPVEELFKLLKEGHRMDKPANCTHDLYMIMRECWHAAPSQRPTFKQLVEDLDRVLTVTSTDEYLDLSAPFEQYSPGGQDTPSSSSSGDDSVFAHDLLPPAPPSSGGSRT
Outline: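 GST-HIS6-tagged human FGFR3 (R397-T806) was reacted with 100 nM Alexa Fluor 647-Poly-GT substrate and 25 μM ATP plus compound in HEPES/MgCl2/Triton buffer, pH 7.5, 2% DMSO, for 10 min at 22 °C.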

[3] = biological target: recombinant human FGFR2 cytoplasmic domain (amino acids 403-822) (Homo sapiens (Human), UniProt P21802); assay: FGFR2 enzyme activity assay (LanthaScreen TR-FRET); conditions: 15 μM ATP, 20 min incubation at 22° C., average of multiple determinations if made, read-out: FGFR2 Enz FRET IC50
Chain of recombinant human FGFR2 cytoplasmic domain (amino acids 403-822) (P21802 402-821): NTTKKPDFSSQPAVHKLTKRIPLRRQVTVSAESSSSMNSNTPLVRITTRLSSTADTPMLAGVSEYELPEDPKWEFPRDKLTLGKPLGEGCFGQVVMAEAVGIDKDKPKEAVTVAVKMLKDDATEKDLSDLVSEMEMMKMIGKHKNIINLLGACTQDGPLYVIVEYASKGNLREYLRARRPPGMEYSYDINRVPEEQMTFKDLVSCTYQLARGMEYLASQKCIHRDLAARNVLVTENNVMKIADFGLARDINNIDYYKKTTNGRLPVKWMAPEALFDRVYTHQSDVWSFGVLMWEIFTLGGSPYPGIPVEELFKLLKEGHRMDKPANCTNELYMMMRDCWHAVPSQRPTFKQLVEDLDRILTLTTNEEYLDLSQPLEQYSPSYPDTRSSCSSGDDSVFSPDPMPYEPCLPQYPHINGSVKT
Outline: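 Substrate phosphorylation was read by TR-FRET using Eu-PY20 antibody (60 min, 22 °C) after a 20 min, 22 °C reaction. The reaction used 15 μM ATP, 100 nM fluorescent poly-GT peptide and His-tagged FGFR2 403-822 ([…]) at pH 7.5 with 2% DMSO.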

Chain of recombinant human FGFR1 catalytic domain (amino acids 308-731) (P11362 other isoform, or with tags, fused parts or gaps): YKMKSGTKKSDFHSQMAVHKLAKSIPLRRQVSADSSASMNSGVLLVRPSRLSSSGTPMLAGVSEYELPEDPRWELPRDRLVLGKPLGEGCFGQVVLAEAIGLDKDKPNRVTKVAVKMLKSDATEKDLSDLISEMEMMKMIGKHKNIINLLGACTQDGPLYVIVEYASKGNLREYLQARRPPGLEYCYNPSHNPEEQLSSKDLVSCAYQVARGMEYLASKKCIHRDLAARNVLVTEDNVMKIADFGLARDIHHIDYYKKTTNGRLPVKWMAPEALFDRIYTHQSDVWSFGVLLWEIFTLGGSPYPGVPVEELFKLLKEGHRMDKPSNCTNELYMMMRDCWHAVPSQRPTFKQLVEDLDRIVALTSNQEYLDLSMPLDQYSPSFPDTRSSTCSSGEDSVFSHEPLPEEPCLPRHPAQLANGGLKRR

IC50 [1] | IC50 [2] | IC50 [3] | Compound
308 nM | 258 nM | 150 nM | C=CC(=O)N1CC(F)(C(=O)N2CCN(c3cc(C)c(-c4cc(OC)c5c(C#N)cnn5c4)cn3)CC2)C1 [Example 114, 6-(6-(4-(1-acryloyl-3-fluoroazetidine-3-carbonyl)piperazin-1-yl)-4-methylpyridin-3-yl)-4-methoxypyrazolo[1,5-a]pyridine-3-carbonitrile]
85 nM | 18 nM | 25 nM | C=CC(=O)N1CC(C(=O)N2CCN(c3ccc(-c4cc(OC)c5c(C#N)cnn5c4)nn3)CC2)C1 [Example 115, 6-(6-(4-(1-acryloylazetidine-3-carbonyl)piperazin-1-yl)pyridazin-3-yl)-4-methoxypyrazolo[1,5-a]pyridine-3-carbonitrile]
54 nM | 27 nM | 19 nM | C=CC(=O)N1CC(C(=O)N2CCN(c3cnc(-c4cc(OC)c5c(C#N)cnn5c4)cn3)CC2)C1 [Example 116, 6-(5-(4-(1-acryloylazetidine-3-carbonyl)piperazin-1-yl)pyrazin-2-yl)-4-methoxypyrazolo[1,5-a]pyridine-3-carbonitrile]
28 nM | 9 nM | 12 nM | C=CC(=O)N1CC(C(=O)N2CCC(n3cc(-c4cc(OC)c5c(Cl)cnn5c4)cn3)CC2)C1 [Example 122, 1-(3-(4-(4-(3-chloro-4-methoxypyrazolo[1,5-a]pyridin-6-yl)-1H-pyrazol-1-yl)piperidine-1-carbonyl)azetidin-1-yl)prop-2-en-1-one]
40 nM | 8 nM | 13 nM | C=CC(=O)N1CC(C)(C(=O)N2CCC(n3cc(-c4cc(OC)c5c(Cl)cnn5c4)cn3)CC2)C1 [Example 123, 1-(3-(4-(4-(3-chloro-4-methoxypyrazolo[1,5-a]pyridin-6-yl)-1H-pyrazol-1-yl)piperidine-1-carbonyl)-3-methylazetidin-1-yl)prop-2-en-1-one]
38 nM | 8 nM | 17 nM | C=CC(=O)N1CC(OC)(C(=O)N2CCC(n3cc(-c4cc(OC)c5c(Cl)cnn5c4)cn3)CC2)C1 [Example 124, 1-(3-(4-(4-(3-chloro-4-methoxypyrazolo[1,5-a]pyridin-6-yl)-1H-pyrazol-1-yl)piperidine-1-carbonyl)-3-methoxyazetidin-1-yl)prop-2-en-1-one]
13 nM | 5 nM | 6 nM | C=CC(=O)N1CC(C(=O)N2CCC(n3cc(-c4cc(OCC)c5c(C#N)cnn5c4)cn3)CC2)C1 [Example 126, 6-(1-(1-(1-acryloylazetidine-3-carbonyl)piperidin-4-yl)-1H-pyrazol-4-yl)-4-ethoxypyrazolo[1,5-a]pyridine-3-carbonitrile]
19 nM | 6 nM |  | COc1cc(-c2cnn(C3CCN(C(=O)C4CN(C(=O)/C=C/CBr)C4)CC3)c2)cn2ncc(C#N)c12 [Example 180, (E)-6-(1-(1-(1-(4-bromobut-2-enoyl)azetidine-3-carbonyl)piperidin-4-yl)-1H-pyrazol-4-yl)-4-methoxypyrazolo[1,5-a]pyridine-3-carbonitrile]

The remaining lines, values behind:

Compound | IC50 [1] | IC50 [2] | IC50 [3]
C=CC(=O)N1CC2(CCN(C(=O)N3CCC(n4cc(-c5cc(OC)c6c(C#N)cnn6c5)cn4)CC3)CC2)C1 [Example 6, 6-(1-(1-(2-acryloyl-2,7-diazaspiro[3.5]nonane-7-carbonyl)piperidin-4-yl)-1H-pyrazol-4-yl)-4-methoxypyrazolo[1,5-a]pyridine-3-carbonitrile] | 10 nM | 4 nM | 4 nM
C=CC(=O)N1C[C@H]2CN(C(=O)N3CCC(n4cc(-c5cc(OC)c6c(C#N)cnn6c5)cn4)CC3)C[C@H]21 [Example 7, 6-(1-(1-((1S,5S)-6-acryloyl-3,6-diazabicyclo[3.2.0]heptane-3-carbonyl)piperidin-4-yl)-1H-pyrazol-4-yl)-4-methoxypyrazolo[1,5-a]pyridine-3-carbonitrile] | 18 nM | 2 nM | 6 nM
C=CC(=O)N1CC2(CCN(C(=O)N3CCC(n4cc(-c5cc(OC)c6c(C#N)cnn6c5)cn4)CC3)C2)C1 [Example 8, 6-(1-(1-(2-acryloyl-2,6-diazaspiro[3.4]octane-6-carbonyl)piperidin-4-yl)-1H-pyrazol-4-yl)-4-methoxypyrazolo[1,5-a]pyridine-3-carbonitrile] | 18 nM | 3 nM | 7 nM
C=CC(=O)Nc1ccc(CN2CCC(n3cc(-c4cc(OC)c5c(C#N)cnn5c4)cn3)CC2)cc1 [Example 9, N-(4-((4-(4-(3-cyano-4-methoxypyrazolo[1,5-a]pyridin-6-yl)-1H-pyrazol-1-yl)piperidin-1-yl)methyl)phenyl)acrylamide] | 32 nM | 4 nM | 5 nM
C=CC(=O)N(C)c1ccc(CN2CCC(n3cc(-c4cc(OC)c5c(C#N)cnn5c4)cn3)CC2)cc1 [Example 10, N-(4-((4-(4-(3-cyano-4-methoxypyrazolo[1,5-a]pyridin-6-yl)-1H-pyrazol-1-yl)piperidin-1-yl)methyl)phenyl)-N-methylacrylamide] | 34 nM | 6 nM | 6 nM
C=CC(=O)N1CCC(n2cc(-c3cc(OC)c4c(C#N)cnn4c3)cn2)CC1 [Example 11, 6-(1-(1-acryloylpiperidin-4-yl)-1H-pyrazol-4-yl)-4-methoxypyrazolo[1,5-a]pyridine-3-carbonitrile] | 22 nM | 7 nM | 7 nM
C=CC(=O)N1CCC(F)(C(=O)N2CCC(n3cc(-c4cc(OC)c5c(C#N)cnn5c4)cn3)CC2)CC1 [Example 13, 6-(1-(1-(1-acryloyl-4-fluoropiperidine-4-carbonyl)piperidin-4-yl)-1H-pyrazol-4-yl)-4-methoxypyrazolo[1,5-a]pyridine-3-carbonitrile] | 10 nM | 3 nM | 2 nM
C=CC(=O)N1CC(F)(C(=O)N2CCC(n3ncc(-c4cc(OC)c5c(C#N)cnn5c4)c3CC)CC2)C1 [Example 96, 6-(1-(1-(1-acryloyl-3-fluoroazetidine-3-carbonyl)piperidin-4-yl)-5-ethyl-1H-pyrazol-4-yl)-4-methoxypyrazolo[1,5-a]pyridine-3-carbonitrile] | 384 nM | 291 nM | 155 nM
C=CC(=O)N1CC(C(=O)N2CCC(n3cc(-c4cc(OC)c5c(C#N)cnn5c4)c(CC)n3)CC2)C1 [Example 97, 6-(1-(1-(1-acryloylazetidine-3-carbonyl)piperidin-4-yl)-3-ethyl-1H-pyrazol-4-yl)-4-methoxypyrazolo[1,5-a]pyridine-3-carbonitrile] | 117 nM | 72 nM | 38 nM
C=CC(=O)N1CC(C(=O)N2CCC(n3cnc(-c4cc(OC)c5c(C#N)cnn5c4)c3)CC2)C1 [Example 98, 6-(1-(1-(1-acryloylazetidine-3-carbonyl)piperidin-4-yl)-1H-imidazol-4-yl)-4-methoxypyrazolo[1,5-a]pyridine-3-carbonitrile] | 22 nM | 9 nM | 6 nM
C=CC(=O)N1CC(C(=O)N2CCN(c3ccc(-c4cc(OC)c5c(C#N)cnn5c4)cc3)CC2)C1 [Example 100, 6-(4-(4-(1-acryloylazetidine-3-carbonyl)piperazin-1-yl)phenyl)-4-methoxypyrazolo[1,5-a]pyridine-3-carbonitrile] | 9 nM | 2 nM | 5 nM
C=CC(=O)N1CC(C(=O)N2CCC(c3ccc(-c4cc(OC)c5c(C#N)cnn5c4)cc3)CC2)C1 [Example 101, 6-(4-(1-(1-acryloylazetidine-3-carbonyl)piperidin-4-yl)phenyl)-4-methoxypyrazolo[1,5-a]pyridine-3-carbonitrile] | 13 nM | 4 nM | 3 nM
C=CC(=O)N1CC(C(=O)N2CCN(c3ccc(-c4cc(OC)c5c(C#N)cnn5c4)cn3)CC2)C1 [Example 111, 6-(6-(4-(1-acryloylazetidine-3-carbonyl)piperazin-1-yl)pyridin-3-yl)-4-methoxypyrazolo[1,5-a]pyridine-3-carbonitrile] | 12 nM | 3 nM | 4 nM
C=CC(=O)N1CC(C(=O)N2CCN(c3ncc(-c4cc(OC)c5c(C#N)cnn5c4)cc3C)CC2)C1 [Example 113, 6-(6-(4-(1-acryloylazetidine-3-carbonyl)piperazin-1-yl)-5-methylpyridin-3-yl)-4-methoxypyrazolo[1,5-a]pyridine-3-carbonitrile] | 107 nM | 105 nM | 42 nM
C=CC(=O)N1CC(C(=O)N2CCC(n3cc(-c4cc(OC5CCC5)c5c(C#N)cnn5c4)cn3)CC2)C1 [Example 125, 6-(1-(1-(1-acryloylazetidine-3-carbonyl)piperidin-4-yl)-1H-pyrazol-4-yl)-4-cyclobutoxypyrazolo[1,5-a]pyridine-3-carbonitrile] | 4 nM | 3 nM | 3 nM
